# Measurements taken from PubChem BioAssay (NCI).
#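 Method: 48-hour compound exposure of cells in 96-well plates, five concentrations, linear interpolation of endpoints. GI50 = concentration required for 50% inhibition of growth. TGI marks complete inhibition of growth.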
# Experiments:
# Test in all cases: growth of human tumour cells (NCI), 48 h
# A549 NSCLC = system: A549 NSCLC
# COLO 205 colon = system: COLO 205 colon
# EKVX NSCLC = system: EKVX NSCLC
# HCC-2998 colon = system: HCC-2998 colon
# IGROV1 ovarian = system: IGROV1 ovarian
# OVCAR-3 ovarian = system: OVCAR-3 ovarian
# SF-539 CNS = system: SF-539 CNS
# UACC-257 melanoma = system: UACC-257 melanoma
# UO-31 renal = system: UO-31 renal
# SK-OV-3 ovarian = system: SK-OV-3 ovarian
SMILES,TGI (A549 NSCLC),TGI (COLO 205 colon),TGI (EKVX NSCLC),TGI (HCC-2998 colon),TGI (IGROV1 ovarian),TGI (OVCAR-3 ovarian),TGI (SF-539 CNS),TGI (UACC-257 melanoma),TGI (UO-31 renal),TGI (SK-OV-3 ovarian),GI50 (A549 NSCLC),GI50 (COLO 205 colon),GI50 (HCC-2998 colon),GI50 (IGROV1 ovarian),GI50 (OVCAR-3 ovarian),GI50 (SF-539 CNS),GI50 (SK-OV-3 ovarian),GI50 (UACC-257 melanoma),GI50 (UO-31 renal),GI50 (EKVX NSCLC)
N#CC1CC2(C1)OCCS2 (configuration not stated),> 100 µM,> 100 µM,> 100 µM,> 100 µM,> 100 µM,> 100 µM,> 100 µM,> 100 µM,> 100 µM,,,,,,,,,,,
O=C(c1ccccc1)C1OC12C(=O)Nc1ccccc12 (configuration not stated),> 100 µM,34.5 µM,> 100 µM,,> 100 µM,97 µM,57.4 µM,> 100 µM,> 100 µM,> 100 µM,,,,,,,,,,
O=C1Nc2ccc(F)cc2/C1=C/c1ccc[nH]1,> 25 µM,> 25 µM,,> 25 µM,> 25 µM,> 25 µM,> 25 µM,> 25 µM,> 25 µM,> 25 µM,> 25 µM,> 25 µM,> 22.1 µM,13.4 µM,> 18.4 µM,> 25 µM,> 25 µM,> 25 µM,> 16.8 µM,
COc1ccc(OC)c2c(C(=O)O)c(Cc3ccccc3)ccc12,> 100 µM,> 100 µM,> 100 µM,> 100 µM,> 100 µM,> 100 µM,,> 100 µM,> 100 µM,> 100 µM,,,,,,,,,,
CC(=O)O[C@]12CCCCCC1C1(O)C(O)CCCC[C@H]12 (some centres not stated),> 100 µM,> 100 µM,> 100 µM,,,,,> 100 µM,> 100 µM,> 100 µM,,,,,,,,,,
CC(CO)(CO)NCCCCn1ccc2c1C(=O)c1c(c(O)c3ccccc3c1O)C2=O,,31.3 µM,44.5 µM,20.9 µM,,29.1 µM,47.1 µM,,> 100 µM,98.7 µM,,3.01 µM,6.2 µM,,5.78 µM,15.3 µM,27.4 µM,,4.18 µM,17.8 µM
Br[C](Br)(Br)[Hg][c]1ccccc1,59.5 µM,16.2 µM,37.7 µM,27.7 µM,27.6 µM,23.3 µM,33.7 µM,26.7 µM,34.5 µM,33.1 µM,29.4 µM,4.55 µM,14.4 µM,13.8 µM,9.76 µM,18 µM,19 µM,13.5 µM,20.2 µM,22 µM
COc1cccc2c(=O)c3c(sc12)c(N1CCNCC1)nc1ccccc13,4.26 µM,4.72 µM,3.17 µM,3.26 µM,2.88 µM,3.12 µM,3.21 µM,4.45 µM,2.32 µM,,1.81 µM,2.07 µM,1.7 µM,1.41 µM,1.67 µM,1.75 µM,,2.09 µM,1.07 µM,1.62 µM
CCCCCCCCCCCCCCCCCCOc1ccccc1CC(=O)OCC[N+]1(C)CCCC1,,,16.4 µM,,3.06 µM,3.13 µM,3.62 µM,9.12 µM,15 µM,38.8 µM,,,,1.52 µM,1.63 µM,1.86 µM,18.9 µM,2.82 µM,3.27 µM,3.38 µM
O=c1c2ccccc2c(=O)c2c1[nH]c1c(-c3ccccc3)c(-c3ccccc3)c(=O)c12,6.6 µM,13.1 µM,11.8 µM,5.05 µM,20.4 µM,4.48 µM,3.74 µM,8.22 µM,5.55 µM,,2.07 µM,3.94 µM,2.09 µM,3.39 µM,1.92 µM,1.85 µM,,2.46 µM,1.75 µM,3.2 µM
COc1ccc(C(=O)COc2ccc(/C=C3\COc4ccc(OC)cc4C3=O)cc2)cc1,> 100 µM,> 100 µM,> 100 µM,,54.7 µM,62.2 µM,65.6 µM,> 100 µM,61.5 µM,81 µM,> 100 µM,51.8 µM,,26 µM,21 µM,25.2 µM,30.6 µM,52.1 µM,18.4 µM,41.2 µM
NC(=O)NCc1c(C(N)=O)ncn1Cc1ccccc1,> 100 µM,> 100 µM,> 100 µM,> 100 µM,> 100 µM,> 100 µM,> 100 µM,> 100 µM,,> 100 µM,,,,,,,,,,
CCN(CC)c1ccc(N=Nc2ccc(-c3nc4ccc[n+](C)c4s3)cc2)cc1,26.3 µM,11.4 µM,58.8 µM,,46.2 µM,15.9 µM,23 µM,24.1 µM,46 µM,38.1 µM,,,,,,,,,,
COc1cc(/C=C/c2cc(/C=C/c3ccc(O)c(OC)c3)n(C(=O)Nc3ccc(C)cc3C)n2)ccc1O,3.2 µM,3.38 µM,5.76 µM,4.26 µM,2.76 µM,1.03 µM,,5.25 µM,1.74 µM,1.21 µM,0.43 µM,1.9 µM,0.738 µM,0.464 µM,0.327 µM,,0.347 µM,1.46 µM,0.362 µM,0.995 µM
Cc1ncc(CCCN(C)C)cc1Nc1ncc2c(n1)-c1ccc(C(F)(F)F)cc1NC(=S)C2,11.6 µM,< 0.0198 µM,,10.3 µM,1.35 µM,15.2 µM,0.11 µM,,12.5 µM,0.448 µM,0.0104 µM,< 0.0111 µM,0.0135 µM,0.43 µM,0.0582 µM,0.0312 µM,< 0.0155 µM,,0.494 µM,
Cc1[nH]c2ccccc2c(=O)c1CC=C(Cl)Cl,> 100 µM,> 100 µM,,> 100 µM,> 100 µM,> 100 µM,> 100 µM,> 100 µM,> 100 µM,55.6 µM,49.4 µM,> 100 µM,> 100 µM,64.2 µM,43.5 µM,39.4 µM,24.2 µM,57 µM,42.8 µM,
Clc1ccc(C=Nc2ccc3c(c2)Cc2ccccc2-3)c(Cl)c1,> 100 µM,> 100 µM,> 100 µM,,> 100 µM,> 100 µM,> 100 µM,> 100 µM,> 100 µM,> 100 µM,,,,,,,,,,
